Converted amounts (≈) assume the structure as drawn. The source made the active and inactive calls. No cut-off for these calls is given here.
Assays:
[1] = target: T1, Protein cereblon/Bromodomain-containing protein 4 (Homo sapiens, UniProt O60885+Q96SW2); test: PROTAC activity at CRBN/Hibit-tagged BRD4 (unknown origin) expressed in HEK293 cells co-expressing LgBiT assessed as degradation of BRD4 incubated for 24 hrs by […] glo-max assay; assay type: cell-based
[2] = target: T1, Protein cereblon/Bromodomain-containing protein 4; test: PROTAC activity at CRBN/Hibit-tagged BRD4 (unknown origin) expressed in HEK293 cells co-expressing LgBiT assessed as degradation of BRD4 incubated for 24 hrs by […] glo-max assay relative to control; assay type: cell-based
[3] = target: T1, Protein cereblon/Bromodomain-containing protein 4; test: PROTAC activity at CRBN/Hibit-tagged BRD4 (unknown origin) expressed in HEK293 cells co-expressing LgBiT assessed as degradation rate incubated for 24 hrs by […] glo-max assay; assay type: cell-based
MV4-11 = test: Cytotoxicity against human MV4-11 cells assessed as reduction in cell viability incubated for 72 hrs by cell-titer glo assay; assay type: functional, cell-based; conditions: MV4-11, 72 h
HD-MB03 = test: Cytotoxicity against human HD-MB03 cells assessed as reduction in cell viability incubated for 72 hrs by cell-titer glo assay; assay type: functional, cell-based; conditions: HD-MB03, 72 h
[4] = Kinetic aqueous solubility of the compound at pH 7.4; assay type: physicochemical; conditions: read-out: Kinetic_solubility
[5] = Metabolic stability in mouse liver microsomes assessed as half life; assay type: ADME, Microsome; conditions: for half-life: liver microsomes
[6] = target: Protein cereblon/Bromodomain-containing protein 4/DNA damage-binding protein 1 (Homo sapiens) (UniProt O60885+Q96SW2+Q16531); test: Binding affinity to his-tagged CRBN/DDB1/GST-tagged BRD4 (49 to 170 residues)(unknown origin) assessed as ternary complex formation (AUC) incubated for 1 hr by luminescence based Alphascreen assay; assay type: protein assay
HEK293 = test: Cytotoxicity against HEK293 cells expressing LgBiT fused HiBiT-BRD2 measured after 24 hrs by cell titer-glo assay; assay type: toxicity, cell-based; conditions: human, hek293, 24 h
[7] = Cmax in female CD1 mouse at 10 mg/kg, po measured upto 24 hrs by LC-MS/MS analysis; assay type: ADME, organism-based; conditions: in vivo
[8] = target: T2, Protein cereblon/Bromodomain-containing protein 2 (Homo sapiens) (UniProt P25440+Q96SW2); test: PROTAC activity at CRBN/Hibit-tagged CRISPR BRD2 (unknown origin) expressed in HEK293 cells coexpressing LgBiT assessed as degradation of BRD2 by […] glo-max assay; assay type: cell-based
[9] = target: T3, Protein cereblon/Bromodomain-containing protein 3 (Homo sapiens) (UniProt Q15059+Q96SW2); test: PROTAC activity at CRBN/Hibit-tagged CRISPR BRD3 (unknown origin) expressed in HEK293 cells co-expressing LgBiT assessed as degradation of BRD3 by […] glo-max assay; assay type: cell-based
[10] = target: T1, Protein cereblon/Bromodomain-containing protein 4; test: PROTAC activity at CRBN/Hibit-tagged CRISPR BRD4 (unknown origin) expressed in HEK293 cells co-expressing LgBiT assessed as degradation of BRD4 by […] glo-max assay; assay type: cell-based
[11] = target: T2, Protein cereblon/Bromodomain-containing protein 2 (Homo sapiens); test: PROTAC activity at CRBN/Hibit-tagged CRISPR BRD2 (unknown origin) expressed in HEK293 cells coexpressing LgBiT assessed as degradation of BRD2 by […] glo-max assay relative to control; assay type: cell-based
[12] = target: T3, Protein cereblon/Bromodomain-containing protein 3 (Homo sapiens); test: PROTAC activity at CRBN/Hibit-tagged CRISPR BRD3 (unknown origin) expressed in HEK293 cells co-expressing LgBiT assessed as degradation of BRD3 by […] glo-max assay relative to control; assay type: cell-based
[13] = target: T1, Protein cereblon/Bromodomain-containing protein 4; test: PROTAC activity at CRBN/Hibit-tagged CRISPR BRD4 (unknown origin) expressed in HEK293 cells co-expressing LgBiT assessed as degradation of BRD4 by […] glo-max assay relative to control; assay type: cell-based
[14] = target: T2, Protein cereblon/Bromodomain-containing protein 2 (Homo sapiens); test: PROTAC activity at CRBN/Hibit-tagged CRISPR BRD2 (unknown origin) expressed in HEK293 cells coexpressing LgBiT assessed as degradation of BRD2 measured after 10 to 14 hrs by […] glo-max assay; assay type: cell-based; conditions: time 10-14 hrs
[15] = target: T3, Protein cereblon/Bromodomain-containing protein 3 (Homo sapiens); test: PROTAC activity at CRBN/Hibit-tagged CRISPR BRD3 (unknown origin) expressed in HEK293 cells co-expressing LgBiT assessed as degradation of BRD3 measured after 13 to 16 hrs by […] glo-max assay; assay type: cell-based; conditions: time 13-16 hrs
[16] = target: T1, Protein cereblon/Bromodomain-containing protein 4; test: PROTAC activity at CRBN/Hibit-tagged CRISPR BRD4 (unknown origin) expressed in HEK293 cells co-expressing LgBiT assessed as degradation of BRD4 measured after 18 to 24 hrs by […] glo-max assay; assay type: cell-based; conditions: time 18-24 hrs
[17] = target: Protein cereblon (Homo sapiens) (UniProt Q96SW2); test: Binding affinity to CRBN (unknown origin)
[18] = Permeability in human MV4-11 cells assessed as cell availability index relative to lenalidomide; assay type: ADME, cell-based
[19] = Effect on BRD3 level in human MV4-11 cells assessed as fold change at 100 nM measured after 4 hrs; assay type: functional
[20] = Effect on BRD4 level in human MV4-11 cells assessed as fold change at 100 nM measured after 4 hrs; assay type: functional
[21] = Effect on BRD2 level in human MV4-11 cells assessed as fold change at 100 nM measured after 4 hrs; assay type: functional
[22] = Effect on MYC level in human MV4-11 cells assessed as fold change at 100 nM measured after 4 hrs; assay type: functional
[23] = Effect on FYTTD1 level in human MV4-11 cells assessed as fold change at 100 nM measured after 4 hrs; assay type: functional
[24] = Effect on CCNF level in human MV4-11 cells assessed as fold change at 100 nM measured after 4 hrs; assay type: functional
[25] = Effect on CDC42EP3 level in human MV4-11 cells assessed as fold change at 100 nM measured after 4 hrs; assay type: functional
[26] = Effect on MCL1 level in human MV4-11 cells assessed as fold change at 100 nM measured after 4 hrs; assay type: functional
[27] = Effect on PLAU level in human MV4-11 cells assessed as fold change at 100 nM measured after 4 hrs; assay type: functional
[28] = Effect on ZFP36L2 level in human MV4-11 cells assessed as fold change at 100 nM measured after 4 hrs; assay type: functional
[29] = Effect on FGL2 level in human MV4-11 cells assessed as fold change at 100 nM measured after 4 hrs; assay type: functional
[30] = Effect on NSA2 level in human MV4-11 cells assessed as fold change at 100 nM measured after 4 hrs; assay type: functional
[31] = Effect on CCND3 level in human MV4-11 cells assessed as fold change at 100 nM measured after 4 hrs; assay type: functional
[32] = Effect on AURKA level in human MV4-11 cells assessed as fold change at 100 nM measured after 4 hrs; assay type: functional
[33] = Effect on NOP53 level in human MV4-11 cells assessed as fold change at 100 nM measured after 4 hrs; assay type: functional
[34] = Effect on PLK1 level in human MV4-11 cells assessed as fold change at 100 nM measured after 4 hrs; assay type: functional
[35] = Effect on RNF166 level in human MV4-11 cells assessed as fold change at 100 nM measured after 4 hrs; assay type: functional
[36] = Effect on ZBTB21 level in human MV4-11 cells assessed as fold change at 100 nM measured after 4 hrs; assay type: functional
[37] = Effect on TP53 level in human MV4-11 cells assessed as fold change at 100 nM measured after 4 hrs; assay type: functional
[38] = Permeability in MDCK-II cells incubated for 1 hr by UPLC/MS/UV analysis; assay type: ADME, cell-based, Canis lupus familiaris; conditions: dog, read-out: permeability
[39] = Stability in mouse plasma assessed as half life by UPLC-MS/MS analysis; assay type: ADME, cell-free
[40] = AUC last in female CD1 mouse at 10 mg/kg, po measured upto 24 hrs by LC-MS/MS analysis; assay type: ADME, organism-based; conditions: in vivo
[41] = Chemical stability in human MV4-11 cell culture media at 400 uM measured upto 72 hrs by UPLC analysis; assay type: physicochemical
[42] = Chemical stability in human HD-MB03 cell culture media at 400 uM measured upto 72 hrs by UPLC analysis; assay type: physicochemical

Compound: Cc1sc2c(c1C)C(c1ccc(Cl)cc1)=N[C@@H](CC(=O)N1CCC(CN3CCN(c4ccc5c(c4)n(C)c(=O)n5C4CCC(=O)NC4=O)CC3)CC1)c1nnc(C)n1-2 (some centres not stated)
- DC50 [1]: 570 pM
- Emax [2]: 96.9%
- Activity [3]: 0.343 fRLU/hr
- IC50 (MV4-11): 30 pM
- IC50 (HD-MB03): 560 pM
- solubility kinetic [4]: 74.5 µM (≈ 61.3 µg/mL)
- half-life [5]: 2.17 h
- t1/2 ([5]; microsomes): 2.17 h
- Activity [6]: Active
- Activity (HEK293): Non-toxic
- Cmax [7]: 23 ng/mL
- Activity [8]: Active
- Activity [9]: Active
- Activity [10]: Active
- Activity [11]: > 95%
- Activity [12]: > 95%
- Activity [13]: > 90%
- Activity [14]: Active
- Activity [15]: Active
- Activity [16]: Active
- Activity [17]: Active
- Ratio [18]: 3.7
- fold change (FC) [19]: -4.26
- fold change (FC) [20]: -3.81
- fold change (FC) [21]: -3.63
- fold change (FC) [22]: -2.43
- fold change (FC) [23]: -1.69
- fold change (FC) [24]: -2.01
- fold change (FC) [25]: -1.05
- fold change (FC) [26]: -1.19
- fold change (FC) [27]: -1.08
- fold change (FC) [28]: -1.03
- fold change (FC) [29]: -0.86
- fold change (FC) [30]: -1.12
- fold change (FC) [31]: -0.86
- fold change (FC) [32]: -1.01
- fold change (FC) [33]: -0.87
- fold change (FC) [34]: -0.76
- fold change (FC) [35]: -0.24
- fold change (FC) [36]: -0.13
- fold change (FC) [37]: 1.88
- Papp at 1 h [38]: 0.95 ×10⁻⁶ cm/s
- half-life [39]: 68.4 h
- AUC(0-t) at 24 h [40]: 97 ng·h/mL

Compound: Cc1sc2c(c1C)C(c1ccc(Cl)cc1)=N[C@@H](CC(=O)N1CCC(CN3CCN(c4ccc(N5CCC(=O)NC5=O)cc4)CC3)CC1)c1nnc(C)n1-2
- DC50 [1]: 2740 pM
- Emax [2]: 46.4%
- Activity [3]: 0.047 fRLU/hr
- IC50 (MV4-11): 660 pM
- IC50 (HD-MB03): 15100 pM
- solubility kinetic [4]: 72.5 µM (≈ 54.7 µg/mL)
- half-life [5]: 1.42 h
- Activity [6]: Active
- Cmax [7]: 345 ng/mL
- Stability [41]: Stable
- Stability [42]: Stable
- fold change (FC) [19]: -2.99
- fold change (FC) [20]: -2.92
- fold change (FC) [21]: -2.79
- fold change (FC) [22]: -2.09
- fold change (FC) [23]: -1.21
- fold change (FC) [24]: -0.89
- fold change (FC) [25]: -1.16
- fold change (FC) [26]: -1.01
- fold change (FC) [27]: -0.89
- fold change (FC) [28]: -0.91
- fold change (FC) [29]: -1
- fold change (FC) [30]: -0.85
- fold change (FC) [31]: -0.7
- fold change (FC) [32]: -0.74
- fold change (FC) [33]: -0.72
- fold change (FC) [34]: -0.67
- fold change (FC) [35]: -0.3
- fold change (FC) [36]: -0.1
- fold change (FC) [37]: 1.65
- Papp at 1 h [38]: 0.29 ×10⁻⁶ cm/s
- half-life [39]: 16.5 h
- AUC(0-t) at 24 h [40]: 1420 ng·h/mL

Source: ChEMBL document CHEMBL6121036, “Evaluation of Cereblon-Directing Warheads for the Development of Orally Bioavailable PROTACs” (J Med Chem, 2025)
